According to patent US10280170B2, “Substituted 4,5,6,7-tetrahydro-pyrazolo[1,5-a]pyrazine derivatives and 5,6,7,8-tetrahydro-4H-pyrazolo[1,5-a][1,4]diazepine derivatives as Ros1 inhibitors” (Janssen Pharmaceutica NV, priority 2014, dated 2019):
Read-outs that look alike come from different tables or passages of the source.

Legend:
[1] = target: T1, Ba/F3 cells containing Ros1 wild-type protein (Homo sapiens, UniProt P08922, cells depend on it, form not given); experiment: Ba/F3-Ros1 cell proliferation assay, wild-type Ros1; assay type: cell-based, murine; details: without IL-3
T1 construct: The background only speaks of 'a number of different unrelated proteins' and names SLC34A2-ROS1 for HCC78 cells
T1 sequence (P08922 whole entry, stated change not applied): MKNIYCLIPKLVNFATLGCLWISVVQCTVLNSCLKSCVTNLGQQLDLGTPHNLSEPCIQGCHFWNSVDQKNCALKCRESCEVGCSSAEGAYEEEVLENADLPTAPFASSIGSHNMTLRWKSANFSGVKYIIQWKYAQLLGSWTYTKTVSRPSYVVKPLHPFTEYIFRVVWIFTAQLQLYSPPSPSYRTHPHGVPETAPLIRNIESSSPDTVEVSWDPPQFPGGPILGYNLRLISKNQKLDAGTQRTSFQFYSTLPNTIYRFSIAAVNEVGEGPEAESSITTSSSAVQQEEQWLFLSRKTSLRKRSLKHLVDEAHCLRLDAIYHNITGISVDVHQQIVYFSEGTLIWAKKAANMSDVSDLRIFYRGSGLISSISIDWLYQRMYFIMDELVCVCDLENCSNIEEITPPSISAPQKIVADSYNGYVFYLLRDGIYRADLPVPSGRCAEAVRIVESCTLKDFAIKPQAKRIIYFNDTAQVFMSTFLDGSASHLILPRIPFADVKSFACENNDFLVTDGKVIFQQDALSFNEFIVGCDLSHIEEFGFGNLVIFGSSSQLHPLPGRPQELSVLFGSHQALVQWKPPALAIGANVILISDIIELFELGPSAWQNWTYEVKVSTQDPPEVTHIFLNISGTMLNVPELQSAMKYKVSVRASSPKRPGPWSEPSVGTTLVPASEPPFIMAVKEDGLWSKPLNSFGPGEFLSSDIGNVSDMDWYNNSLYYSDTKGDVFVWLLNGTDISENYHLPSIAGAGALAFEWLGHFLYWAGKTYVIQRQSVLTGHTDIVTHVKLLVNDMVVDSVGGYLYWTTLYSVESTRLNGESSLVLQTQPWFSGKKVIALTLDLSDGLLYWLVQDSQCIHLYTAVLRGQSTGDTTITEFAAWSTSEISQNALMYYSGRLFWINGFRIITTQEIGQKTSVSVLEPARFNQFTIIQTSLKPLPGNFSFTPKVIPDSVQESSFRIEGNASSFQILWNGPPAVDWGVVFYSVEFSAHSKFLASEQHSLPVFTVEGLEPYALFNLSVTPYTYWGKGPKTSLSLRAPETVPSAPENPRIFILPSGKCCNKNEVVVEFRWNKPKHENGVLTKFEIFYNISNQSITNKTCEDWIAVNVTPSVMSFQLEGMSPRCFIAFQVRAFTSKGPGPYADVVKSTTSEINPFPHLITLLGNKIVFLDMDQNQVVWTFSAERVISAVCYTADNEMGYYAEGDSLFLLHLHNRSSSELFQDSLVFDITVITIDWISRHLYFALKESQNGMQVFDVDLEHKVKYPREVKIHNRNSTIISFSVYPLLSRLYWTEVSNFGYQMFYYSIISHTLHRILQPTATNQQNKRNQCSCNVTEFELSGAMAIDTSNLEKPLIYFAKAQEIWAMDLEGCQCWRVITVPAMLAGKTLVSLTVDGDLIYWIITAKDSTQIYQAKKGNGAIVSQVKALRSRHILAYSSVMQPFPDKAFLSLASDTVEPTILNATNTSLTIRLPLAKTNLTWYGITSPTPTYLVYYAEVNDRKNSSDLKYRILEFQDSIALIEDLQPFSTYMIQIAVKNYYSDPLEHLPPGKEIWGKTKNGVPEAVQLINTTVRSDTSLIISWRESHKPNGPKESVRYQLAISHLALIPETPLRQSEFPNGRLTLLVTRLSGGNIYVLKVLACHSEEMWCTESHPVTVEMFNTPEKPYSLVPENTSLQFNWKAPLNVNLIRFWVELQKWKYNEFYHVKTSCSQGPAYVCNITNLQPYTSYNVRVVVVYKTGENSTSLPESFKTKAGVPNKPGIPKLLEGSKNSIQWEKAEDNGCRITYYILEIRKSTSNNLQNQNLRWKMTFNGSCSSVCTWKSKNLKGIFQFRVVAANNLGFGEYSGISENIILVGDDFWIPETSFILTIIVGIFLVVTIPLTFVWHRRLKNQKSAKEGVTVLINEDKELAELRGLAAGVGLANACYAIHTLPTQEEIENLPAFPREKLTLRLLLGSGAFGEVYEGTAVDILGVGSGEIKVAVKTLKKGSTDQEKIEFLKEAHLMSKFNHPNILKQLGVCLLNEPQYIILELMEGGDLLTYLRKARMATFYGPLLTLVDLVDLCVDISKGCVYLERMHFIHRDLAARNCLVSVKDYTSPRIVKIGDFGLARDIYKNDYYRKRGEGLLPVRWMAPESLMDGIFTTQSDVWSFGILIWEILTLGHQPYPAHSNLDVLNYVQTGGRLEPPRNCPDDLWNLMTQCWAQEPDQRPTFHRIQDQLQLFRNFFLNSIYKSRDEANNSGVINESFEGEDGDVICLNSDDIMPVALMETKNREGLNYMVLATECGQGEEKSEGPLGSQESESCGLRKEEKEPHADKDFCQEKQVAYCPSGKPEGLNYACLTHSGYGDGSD
Procedure: (§1) Ba/F3-Ros1 Cell Proliferation Assay
(§2) This assay was carried out with Ba/F3 cells containing three different versions of Ros1: the wild-type protein, protein with a mutation at the gatekeeper residue (L2026M), and protein with a mutation identified in a tumor from a patient that became resistant to crizotinib (Xalkori®) treatment (G2032R). Compounds were solubilized in 100% DMSO (dimethyl sulfoxide) and sprayed into polystyrene, tissue culture treated 384-well plates. A 50 μl volume of cell culture medium (phenol red free RPMI-1640, 10% FBS (fetal bovine serum), 2 mM L-Glutamine) containing 20000 Ba/F3-Ros1 cells was added to each well and the plates were placed in an incubator at 37° C. and 5% CO2. After 24 hours, 10 μl of Alamar Blue solution (0.5 mM K3Fe(CN)6, 0.5 mM K4Fe(CN)6, 0.15 mM Resazurin and 100 mM Phosphate Buffer) was added to the wells, incubated for 4 hours at 37° C. and 5% CO2 before RFU's (Relative Fluorescence Units) (ex. 540 nm., em. 590 nm.) were measured in a fluorescence plate reader.

Ros1 enzyme = target: T2, Ros1 enzyme (Homo sapiens, UniProt P08922); experiment: Ros1 enzymatic assay; assay type: biochemical; details: Ros1 enzymatic assay; read-out: ROS1 pIC50 (converted)
T2 construct: 0.5 μg/ml Ros1 enzyme
T2 sequence (P08922 28-2347): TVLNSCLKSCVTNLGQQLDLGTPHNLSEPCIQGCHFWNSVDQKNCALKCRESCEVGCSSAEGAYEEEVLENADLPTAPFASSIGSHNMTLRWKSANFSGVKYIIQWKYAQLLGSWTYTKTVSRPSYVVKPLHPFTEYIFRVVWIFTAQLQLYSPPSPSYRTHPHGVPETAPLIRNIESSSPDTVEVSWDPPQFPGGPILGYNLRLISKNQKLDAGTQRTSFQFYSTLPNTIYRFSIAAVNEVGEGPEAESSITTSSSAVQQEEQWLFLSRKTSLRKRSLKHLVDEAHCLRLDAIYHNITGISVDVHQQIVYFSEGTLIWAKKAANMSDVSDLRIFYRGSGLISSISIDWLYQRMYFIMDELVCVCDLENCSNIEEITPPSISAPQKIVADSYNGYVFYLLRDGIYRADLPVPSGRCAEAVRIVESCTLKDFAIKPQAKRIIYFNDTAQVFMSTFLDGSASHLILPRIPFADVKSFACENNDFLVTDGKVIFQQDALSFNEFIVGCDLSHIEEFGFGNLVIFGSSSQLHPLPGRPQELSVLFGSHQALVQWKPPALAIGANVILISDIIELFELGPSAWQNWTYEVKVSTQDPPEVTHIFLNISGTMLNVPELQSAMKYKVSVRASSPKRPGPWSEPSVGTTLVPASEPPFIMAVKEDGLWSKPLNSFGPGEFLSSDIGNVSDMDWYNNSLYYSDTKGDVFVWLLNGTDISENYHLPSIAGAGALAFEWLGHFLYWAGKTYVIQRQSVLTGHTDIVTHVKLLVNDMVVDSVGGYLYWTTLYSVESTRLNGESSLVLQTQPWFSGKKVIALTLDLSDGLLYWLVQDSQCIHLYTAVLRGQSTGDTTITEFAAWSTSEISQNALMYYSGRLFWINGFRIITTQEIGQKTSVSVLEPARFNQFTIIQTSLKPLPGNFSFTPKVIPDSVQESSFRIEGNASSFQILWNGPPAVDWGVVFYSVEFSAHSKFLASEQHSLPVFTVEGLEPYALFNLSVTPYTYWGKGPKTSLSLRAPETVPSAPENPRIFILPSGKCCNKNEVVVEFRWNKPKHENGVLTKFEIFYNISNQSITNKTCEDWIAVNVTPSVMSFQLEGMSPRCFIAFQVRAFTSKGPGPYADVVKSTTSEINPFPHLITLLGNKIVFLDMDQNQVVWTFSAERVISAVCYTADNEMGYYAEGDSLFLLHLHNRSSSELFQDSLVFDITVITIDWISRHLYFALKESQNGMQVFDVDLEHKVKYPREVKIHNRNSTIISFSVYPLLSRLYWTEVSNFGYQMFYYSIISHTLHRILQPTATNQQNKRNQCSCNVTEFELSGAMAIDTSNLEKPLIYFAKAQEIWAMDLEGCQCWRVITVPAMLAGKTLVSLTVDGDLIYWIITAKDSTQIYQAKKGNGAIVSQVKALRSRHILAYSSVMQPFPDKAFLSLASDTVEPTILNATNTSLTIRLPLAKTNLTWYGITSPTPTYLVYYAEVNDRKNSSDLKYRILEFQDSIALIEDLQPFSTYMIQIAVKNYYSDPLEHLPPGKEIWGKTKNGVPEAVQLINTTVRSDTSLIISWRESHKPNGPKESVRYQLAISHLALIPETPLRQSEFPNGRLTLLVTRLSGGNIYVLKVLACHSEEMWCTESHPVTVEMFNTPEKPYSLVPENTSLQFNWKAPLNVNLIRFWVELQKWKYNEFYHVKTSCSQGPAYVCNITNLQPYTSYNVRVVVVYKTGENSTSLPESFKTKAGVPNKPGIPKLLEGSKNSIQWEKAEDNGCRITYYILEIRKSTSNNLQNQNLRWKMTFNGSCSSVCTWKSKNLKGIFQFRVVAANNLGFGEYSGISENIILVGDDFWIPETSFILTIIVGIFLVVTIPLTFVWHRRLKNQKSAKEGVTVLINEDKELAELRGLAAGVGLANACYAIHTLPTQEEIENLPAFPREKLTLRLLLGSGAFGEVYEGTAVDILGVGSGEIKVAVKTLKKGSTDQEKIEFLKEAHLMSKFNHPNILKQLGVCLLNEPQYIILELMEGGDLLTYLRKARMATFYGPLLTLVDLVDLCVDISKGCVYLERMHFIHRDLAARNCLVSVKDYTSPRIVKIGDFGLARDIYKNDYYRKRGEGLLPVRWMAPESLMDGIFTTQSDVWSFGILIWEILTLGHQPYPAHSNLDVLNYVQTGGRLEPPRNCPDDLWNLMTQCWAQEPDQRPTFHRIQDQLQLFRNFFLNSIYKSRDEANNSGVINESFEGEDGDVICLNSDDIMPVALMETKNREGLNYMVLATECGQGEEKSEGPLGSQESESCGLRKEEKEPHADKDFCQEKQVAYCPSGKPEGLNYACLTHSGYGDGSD
Procedure: Compounds were spotted onto white 384-well Proxiplate plus plates (Perkin Elmer) to which 5 μl of enzyme mix (0.5 μg/ml Ros1 enzyme, 50 mM Tris-HCl pH7.5, 1 mM EGTA, 10 mM MgCl2, 0.01% Tween-20) and 5 μl of substrate mix (6 μg/ml IRS-Tide [American Peptide Company], 20 μM ATP, 13.33 μCi/ml ATP (adenosine 5′-triphosphate) P^33, 50 mM Tris-HCl pH7.5, 1 mM EGTA (ethylene glycol-bis(2-aminoethylether)-N,N,N′,N′-tetraacetic acid), 10 mM MgCl2, 0.01% Tween-20) were added. After incubation for 120 minutes at room temperature, 10 μl of stop reaction buffer (5 mM EDTA, 50 μM ATP, 0.1% BSA (bovine serum albumin), 0.1% Triton X-100, 50 mM Tris-HCl pH7.5, 1 mM EGTA, 10 mM MgCl2, 0.01% Tween-20) containing 2 mg/ml streptavidin coupled polystyrene imaging beads (Amersham Biosciences) was added and incubated for 15 minutes at room temperature. Plates were centrifuged for 3 minutes at 1500 rpm and signals detected in a LEADseeker imaging system (GE).

[2] = tested on: Ba/F3 cells containing Ros1 wild-type protein + IL-3; experiment: Ba/F3-Ros1 cell proliferation counter-screen, wild-type protein in the presence of 10 ng/ml murine IL-3; assay type: cell-based; details: Mus musculus, BaF3, 24 h, read-out: BaF3-ROS1 + IL3 pIC50 (converted)
Procedure: as §2
As a counter-screen the same experiment was performed for the wild-type protein in the presence of 10 ng/ml murine IL-3.

[3] = target: Ba/F3 cells containing Ros1 with a mutation at the gatekeeper residue (L2026M) (Homo sapiens, UniProt P08922, L2026M, cells depend on it, form not given); experiment: Ba/F3-Ros1 cell proliferation assay, L2026M gatekeeper mutant; assay type: cell-based, murine; details: without IL-3
Chain of Ba/F3 cells containing Ros1 with a mutation at the gatekeeper residue (L2026M) (P08922 whole entry L2026M, form open): as the sequence (P08922 whole entry, stated change not applied) above, with L2026M counted along it
Procedure: as §1, §2

[4] = counter-screen, wild-type, 10 ng/ml murine IL-3

Structure (SMILES)	BaF3-ROS1-IL3 pIC50 [1]	melting point	IC50 (Ros1 enzyme)	CC50 [2, 4]	Ba/F3 Ros1 L2026M (-IL-3) pIC50 [3]	CC50 [2]
CC(C)c1ccc(COc2ccc(-c3c(-c4ccncc4)nn4c3C(=O)N(CC(O)CO)CC4)cc2)c(F)c1F (stereo not drawn) [Compound 101]	6.7	192 °C	0.398 µM	> 10 µM	6.4	
CC(C)c1ccc(C(C)Oc2ccc(-c3c(-c4ccncc4)nn4c3C(=O)NCC4)cc2)cc1 (stereo not drawn) [Compound 143]	6.4	217 °C	1 µM		6.0	5.01 µM
CC(C)c1ccc(C2Oc3ccc(-c4c(-c5ccncc5)nn5c4C(=O)NCC5)cc3NC2=O)cc1 (stereo not drawn) [Compound 231]	6.4	291 °C	0.794 µM	> 10 µM	5.7	
CC(C)c1ccc(COc2ccc(-c3c(-c4ccncc4)nn4c3C(=O)N(CCC#N)CC4)cc2)cc1 [Compound 57]	7.7	158 °C	0.0251 µM			> 10 µM
CC(C)c1cccc(COc2ccc(-c3c(-c4ccncc4)nn4c3C(=O)NCC4)cc2)c1 [Compound 110]	6.9	268 °C	0.126 µM			> 10 µM
N#Cc1ncc(COc2ccc(-c3c(-c4ccncc4)nn4c3C(=O)NCC4)cc2)cc1Cl [Compound 230]	5.2	277 °C	> 10 µM	> 10 µM		
CC(C)c1ccc(COc2ccc(-c3c(-c4ccncc4)nn4c3C(=O)N(CCO)CC4)c(F)c2)cc1CCO [Compound 205]	7.8	151 °C	0.00794 µM		7.5	> 10 µM
CC(C)c1ccc(COc2ccc(-c3c(-c4ccncc4)nn4c3C(=O)N(C(=O)OC(C)(C)C)CC4)cc2)cc1 [Compound 70]	6.4	147 °C	3.16 µM	> 10 µM	6.1	
O=C1NCCn2nc(-c3ccncn3)c(-c3ccc(OCc4ccc(C5CC5)nc4)cc3)c21 [Compound 168]	6.5	254 °C	0.398 µM		6.2	> 10 µM
CC(C)c1ccc(COc2cc(F)c(-c3c(-c4ccncc4)nn4c3C(=O)NCC4)c(F)c2)cc1 [Compound 17]	6.8	235 °C	0.501 µM			> 10 µM
CC(C)Cc1ccc(COc2ccc(-c3c(-c4ccncc4)nn4c3C(=O)NCC4)cc2)cc1 [Compound 108]	7.0	233 °C	0.126 µM			> 10 µM
COC(=O)c1ccc(COc2ccc(-c3c(-c4ccncc4)nn4c3C(=O)NCC4)cc2)cc1 [Compound 9a]	<5	254 °C	2.51 µM	> 10 µM		
CC(C)NC(=O)CN1CCn2nc(-c3ccncc3)c(-c3ccc(OCc4ccc(C(C)C)cc4)cc3)c2C1 [Compound 178]	6.6	188 °C	0.2 µM	> 10 µM		
COc1cc(OCc2ccc(C(C)C)cc2)ccc1-c1c(-c2ccncc2)nn2c1C(=O)NCC2 [Compound 34]	6.6	276 °C	0.316 µM			> 10 µM
O=C1NCCn2nc(-c3ccncn3)c(-c3ccc(OCc4ccc(C5CC5)cc4)cc3)c21 [Compound 166]	6.9	268 °C	0.0631 µM	> 10 µM		
N#Cc1cccc(COc2ccc(-c3c(-c4ccncc4)nn4c3C(=O)NCC4)cc2)c1 [Compound 124]	5.7	238 °C	2 µM			> 10 µM
CC(C)c1ccc(COc2ccc(-c3c(-c4ccncc4)nn4c3C(=O)N(CC(O)CO)CC4)cc2)c(F)c1F (stereo not drawn) [Compound 102]	6.7	191 °C	0.794 µM		6.4	
COc1cc(COc2ccc(-c3c(-c4ccncc4)nn4c3C(=O)NCC4)cc2)ccc1C(C)C [Compound 80]	6.9	232 °C	0.126 µM			> 10 µM
CC1CNCc2c(-c3ccc(OCc4ccc(C5CC5)cc4)cc3)c(-c3ccncc3)nn21 (stereo not drawn) [Compound 197]	5.8	153 °C	0.794 µM	> 10 µM		
CC(CO)c1ccc(COc2ccc(-c3c(-c4ccncc4)nn4c3C(=O)NCC4)cc2)cc1 (stereo not drawn) [Compound 127]	6.6	259 °C	0.398 µM			> 10 µM
O=C1NCCn2nc(-c3ccncc3)c(-c3ccc(OCc4cccc(C(F)(F)F)c4)cc3)c21 [Compound 120]	6.6	293 °C	0.251 µM			> 10 µM
COc1cccc(COc2ccc(-c3c(-c4ccncc4)nn4c3C(=O)NCC4)cc2)c1 [Compound 113]	6.0	242 °C	0.794 µM	> 10 µM		
CC(C)c1ccc(COc2ccc(-c3c(-c4ccncc4)nn4c3CNC(=O)C4)cc2)cc1 [Compound 237]	6.8	281 °C	0.794 µM			> 10 µM
O=C1NCCn2nc(-c3ccncc3)c(-c3ccc(OCc4ccccc4)cc3)c21 [Compound 130]	5.8	260 °C	3.16 µM			> 10 µM
CC(C)c1ccc(COc2ccc(-c3c(-c4ccncn4)nn4c3CNCC4)cc2)cc1 [Compound 219]	6.0	150 °C	1.26 µM	> 10 µM		
c1cc(-c2nn3c(c2-c2ccc(OCc4ccc(C5CC5)nc4)cc2)CNCC3)ccn1 [Compound 186]	6.2	195 °C	1 µM	> 10 µM		
CC(C)Oc1ccc(COc2ccc(-c3c(-c4ccncc4)nn4c3C(=O)NCC4)cc2)cc1 [Compound 114]	6.4	252 °C	0.501 µM			> 10 µM
